Test systems include SNB-75 CNS; HOP-92 NSCLC; HCT-15 colon; UACC-257 melanoma; HCT-116 colon; SNB-19 CNS; TK-10 renal; COLO 205 colon; SK-MEL-2 melanoma.
Holding throughout (experiment): NCI anticancer screen, dose series, 48 h

Structures are written as SMILES.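 Results reflect a 48-hour exposure of cells in 96-well plates to compound at five concentrations. At the GI50, growth is halved. TGI is the concentration that stops growth completely.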

Take `COC(=O)C1(O)CC(=O)CCC1c1ccc(OC)cc1` (stereo unspecified): the TGI with SNB-75 CNS, in the assay with HOP-92 NSCLC, in the assay on HCT-15 colon, in the assay with UACC-257 melanoma, in the assay on HCT-116 colon and with SNB-19 CNS was over 100 µM throughout. For the same compound, the TGI in the assay with TK-10 renal, in the assay with COLO 205 colon and in the assay with SK-MEL-2 melanoma was over 100 µM throughout.

`CC(=O)N1CCC2(c3ccccc3N(C(C)=O)C2c2ccc(O)cc2)C1C(=O)O` (stereo unspecified): the TGI with SNB-75 CNS, in the assay on HOP-92 NSCLC, with UACC-257 melanoma, in the assay with HCT-116 colon, in the assay with SNB-19 CNS and with TK-10 renal was over 100 µM throughout. Besides, the TGI with COLO 205 colon and in the assay with SK-MEL-2 melanoma was over 100 µM in each case.

On to `CCNC(=O)COc1ccc(Cl)cc1Cl`, for which the TGI in the assay with SNB-75 CNS, in the assay with HOP-92 NSCLC, with HCT-15 colon, in the assay with UACC-257 melanoma, in the assay with HCT-116 colon and in the assay on SNB-19 CNS was over 100 µM in each case. Also, the TGI with COLO 205 colon and in the assay on SK-MEL-2 melanoma was over 100 µM in each case.

Consider `C/C(=N/NC(=O)C[N+](C)(C)C)C(CN(C)C)C(=O)Nc1ccccc1` (stereo unspecified), for which the TGI in the assay with SNB-75 CNS, in the assay with HCT-15 colon, with UACC-257 melanoma, in the assay on HCT-116 colon, in the assay with SNB-19 CNS and in the assay with TK-10 renal was over 100 µM in each case. Further, the TGI in the assay on COLO 205 colon and in the assay on SK-MEL-2 melanoma was over 100 µM each time.

With `CC(C)(C)C(=O)[CH-]C(=O)C(C)(C)C.CC(C)(C)C(=O)[CH-]C(=O)C(C)(C)C.CN(C)c1ccc([O-])cc1.CN(C)c1ccc([O-])cc1.[Ti+4]`, the GI50 in the assay with SNB-75 CNS is 26.1 µM; in the assay with HOP-92 NSCLC, 72 µM; with HCT-15 colon, over 100 µM; in the assay with UACC-257 melanoma it was over 100 µM; with HCT-116 colon it was over 100 µM; in the assay with COLO 205 colon, over 100 µM. In the assay on SK-MEL-2 melanoma, the GI50 was over 100 µM. Moreover, the TGI in the assay on SNB-75 CNS, with HOP-92 NSCLC, with HCT-15 colon, with UACC-257 melanoma, in the assay with HCT-116 colon and in the assay with COLO 205 colon was over 100 µM in each case. Moreover, the TGI in the assay on SK-MEL-2 melanoma is over 100 µM.

For the compound `N/N=C1\C(=O)N(CCc2ccccc2)C(=O)C1C(=O)NCCc1ccccc1` (stereo unspecified), the TGI in the assay on SNB-75 CNS, with HOP-92 NSCLC, in the assay on UACC-257 melanoma, with HCT-116 colon, with SNB-19 CNS and in the assay on TK-10 renal was over 100 µM throughout. This compound also gave a TGI in the assay on SK-MEL-2 melanoma of over 100 µM.

Take `C/C(=N\NC(=O)CC#N)c1c(O)cc(C)oc1=O`: the TGI with SNB-75 CNS, in the assay with HOP-92 NSCLC, in the assay with HCT-15 colon, in the assay with UACC-257 melanoma, with HCT-116 colon and in the assay with SNB-19 CNS was over 100 µM throughout. Also, the TGI in the assay on TK-10 renal and in the assay with SK-MEL-2 melanoma was over 100 µM throughout.

As for `O=C(/C=C/c1ccccc1)CC(=O)CCC(=O)Nc1ccc(Cl)cc1`, the TGI in the assay with HCT-15 colon, with UACC-257 melanoma, with HCT-116 colon, with SNB-19 CNS, in the assay on TK-10 renal and in the assay with COLO 205 colon was over 100 µM in each case. The TGI in the assay with SK-MEL-2 melanoma is over 100 µM.

For the compound `CCOC(=O)C1SC(=Nc2ccc(Cl)cc2)N=C1C` (stereo unspecified), the TGI in the assay on SNB-75 CNS worked out at 44.7 µM; with HOP-92 NSCLC it was 29.6 µM; in the assay on HCT-15 colon, 30 µM; with HCT-116 colon it was 30.2 µM; in the assay with SNB-19 CNS, 35 µM; in the assay on TK-10 renal, 64.4 µM. Also, the values for the TGI in the assay on COLO 205 colon and in the assay on SK-MEL-2 melanoma were 32.8 µM and 38.5 µM, respectively.

As for `CCCCN(CC)CC(C(C)=O)c1c(O)c2ccccc2oc1=O` (stereo unspecified), the TGI in the assay with SNB-75 CNS, in the assay with HCT-15 colon, in the assay with UACC-257 melanoma, with HCT-116 colon, in the assay with SNB-19 CNS and in the assay on TK-10 renal was over 100 µM throughout. Besides, the TGI in the assay with COLO 205 colon and in the assay with SK-MEL-2 melanoma was over 100 µM in each case.

For the compound `CSC1=Nc2ccccc2N=C(c2ccc(Cl)cc2)C1`, the TGI with HCT-15 colon was over 100 µM; with UACC-257 melanoma, 84.9 µM; in the assay on HCT-116 colon, over 100 µM; in the assay on SNB-19 CNS it was over 100 µM; with COLO 205 colon it was over 100 µM; with SK-MEL-2 melanoma it was 51.4 µM.

Consider `Cc1c(C(=O)O)oc2ccc([N+](=O)[O-])cc12`, for which the TGI with HOP-92 NSCLC, in the assay on HCT-15 colon, with UACC-257 melanoma, with HCT-116 colon, in the assay with SNB-19 CNS and in the assay with TK-10 renal was over 100 µM throughout. The TGI in the assay with COLO 205 colon and in the assay with SK-MEL-2 melanoma was over 100 µM throughout.

As to `CC(=O)OCC1OC(N2C(=O)C(=O)c3ccccc32)C(OC(C)=O)C(OC(C)=O)C1OC(C)=O` (stereo unspecified), the TGI in the assay with SNB-75 CNS, in the assay on HOP-92 NSCLC, in the assay on HCT-15 colon, with UACC-257 melanoma, in the assay on SNB-19 CNS and with TK-10 renal was over 100 µM in each case. The TGI with COLO 205 colon and with SK-MEL-2 melanoma was over 100 µM throughout.

For the compound `COc1ccc(/C(=N\NC(=S)NN)C(c2ccc(OC)cc2)C2C(=O)Oc3ccccc32)cc1` (stereo unspecified), the GI50 with SNB-75 CNS, with HOP-92 NSCLC, with HCT-15 colon, in the assay on UACC-257 melanoma, in the assay with HCT-116 colon and in the assay on TK-10 renal was over 100 µM throughout. Further, the GI50 in the assay on COLO 205 colon and in the assay on SK-MEL-2 melanoma was over 100 µM in each case. In addition, the TGI in the assay on SNB-75 CNS, in the assay on HOP-92 NSCLC, with HCT-15 colon, with UACC-257 melanoma, with HCT-116 colon and with TK-10 renal was over 100 µM in each case. In addition, the TGI in the assay on COLO 205 colon and with SK-MEL-2 melanoma was over 100 µM each time.

Turning to `C[N+](C)(C)CC1CCCCC1O` (stereo unspecified), the TGI with SNB-75 CNS, in the assay on HOP-92 NSCLC, in the assay with HCT-15 colon, with UACC-257 melanoma, in the assay with HCT-116 colon and with TK-10 renal was over 100 µM each time. The TGI in the assay on COLO 205 colon and with SK-MEL-2 melanoma was over 100 µM each time.

These data come from PubChem BioAssay (NCI).
